From ChEMBL document CHEMBL4390688, “Accelerating the discovery of DGAT1 inhibitors through the application of parallel medicinal chemistry (PMC)” (Bioorg Med Chem Lett, 2019)

Tests used:
[1] = target: Voltage-gated inwardly rectifying potassium channel KCNH2 (Homo sapiens, UniProt Q12809); assay: Inhibition of human ERG
[2] = target: T1, Sterol O-acyltransferase 1 (Homo sapiens, UniProt P35610)
T1 sequence (P35610 whole entry): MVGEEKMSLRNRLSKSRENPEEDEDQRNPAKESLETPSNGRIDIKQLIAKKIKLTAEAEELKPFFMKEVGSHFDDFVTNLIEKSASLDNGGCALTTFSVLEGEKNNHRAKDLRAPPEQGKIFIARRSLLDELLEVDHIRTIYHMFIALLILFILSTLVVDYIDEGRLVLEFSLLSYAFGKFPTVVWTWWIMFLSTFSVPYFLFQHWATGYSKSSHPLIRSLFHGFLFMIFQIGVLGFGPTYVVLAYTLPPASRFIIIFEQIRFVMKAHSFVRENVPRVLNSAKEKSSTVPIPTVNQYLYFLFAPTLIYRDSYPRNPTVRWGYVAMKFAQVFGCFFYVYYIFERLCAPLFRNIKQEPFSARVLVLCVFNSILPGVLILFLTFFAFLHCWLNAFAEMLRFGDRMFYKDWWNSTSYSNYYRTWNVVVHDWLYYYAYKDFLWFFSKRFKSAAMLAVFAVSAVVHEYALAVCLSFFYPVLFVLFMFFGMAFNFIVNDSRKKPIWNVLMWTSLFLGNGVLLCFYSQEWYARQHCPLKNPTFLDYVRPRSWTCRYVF
Description: Inhibition of human ACAT1

[3] = target: T2, Diacylglycerol O-acyltransferase 1 (Homo sapiens, UniProt O75907)
T2 sequence (O75907 whole entry): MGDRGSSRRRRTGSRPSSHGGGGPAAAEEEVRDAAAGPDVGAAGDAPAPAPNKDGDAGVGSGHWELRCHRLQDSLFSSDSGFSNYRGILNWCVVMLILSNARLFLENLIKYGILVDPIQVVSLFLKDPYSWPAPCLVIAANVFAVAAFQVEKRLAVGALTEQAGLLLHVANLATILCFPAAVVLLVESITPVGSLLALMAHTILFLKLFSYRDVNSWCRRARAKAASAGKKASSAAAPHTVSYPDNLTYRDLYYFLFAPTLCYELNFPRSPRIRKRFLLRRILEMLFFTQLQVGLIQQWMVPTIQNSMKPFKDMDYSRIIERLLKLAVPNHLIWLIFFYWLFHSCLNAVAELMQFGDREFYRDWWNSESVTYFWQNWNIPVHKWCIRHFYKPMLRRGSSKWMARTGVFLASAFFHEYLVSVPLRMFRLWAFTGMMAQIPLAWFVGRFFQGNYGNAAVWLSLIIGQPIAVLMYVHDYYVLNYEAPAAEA
Description: Inhibition of human DGAT1

[4] = target: T3, Diacylglycerol O-acyltransferase 1 (Mus musculus, UniProt Q9Z2A7)
T3 sequence (Q9Z2A7 whole entry): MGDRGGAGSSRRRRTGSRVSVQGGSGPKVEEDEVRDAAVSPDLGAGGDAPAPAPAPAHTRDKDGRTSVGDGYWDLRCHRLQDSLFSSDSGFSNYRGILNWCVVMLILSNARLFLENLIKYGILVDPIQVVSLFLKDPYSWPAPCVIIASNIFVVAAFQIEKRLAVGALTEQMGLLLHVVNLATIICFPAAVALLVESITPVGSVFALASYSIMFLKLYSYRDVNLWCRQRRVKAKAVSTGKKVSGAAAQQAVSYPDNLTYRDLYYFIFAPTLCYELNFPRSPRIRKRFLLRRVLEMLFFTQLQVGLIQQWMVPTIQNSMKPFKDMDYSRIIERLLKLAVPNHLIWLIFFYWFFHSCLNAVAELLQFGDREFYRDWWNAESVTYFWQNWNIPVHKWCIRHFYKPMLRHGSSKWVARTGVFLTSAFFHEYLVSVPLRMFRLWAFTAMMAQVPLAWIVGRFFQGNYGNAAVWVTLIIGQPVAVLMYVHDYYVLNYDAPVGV
Description: Inhibition of mouse DGAT1

[5] = Distribution coefficient, log D of compound; assay type: physicochemical; conditions: octanol/water
Homo sapiens = species on record: Homo sapiens; assay: Ratio of IC50 for human ACAT1 to IC50 for human DGAT1
Mus musculus [6] = assay: Reduction in lipid excursion in mouse at 10 mg/kg, po QD measured at 18 hrs post dose by lipid tolerance test relative to control; assay type: functional; design: scale not given: the % may be the effect or the level left
Mus musculus [7] = assay: Reduction in lipid excursion in mouse at 3 mg/kg, po administered as single dose measured after 18 hrs by lipid tolerance test relative to control; assay type: functional; design: scale not given: the % may be the effect or the level left
Adenosine receptor A2a [8] = target: T4, Adenosine receptor A2a (Homo sapiens, UniProt P29274); assay: Activity against human A2AR assessed as inhibition of cAMP accumulation by cAMP functional assay
T4 sequence (P29274 whole entry): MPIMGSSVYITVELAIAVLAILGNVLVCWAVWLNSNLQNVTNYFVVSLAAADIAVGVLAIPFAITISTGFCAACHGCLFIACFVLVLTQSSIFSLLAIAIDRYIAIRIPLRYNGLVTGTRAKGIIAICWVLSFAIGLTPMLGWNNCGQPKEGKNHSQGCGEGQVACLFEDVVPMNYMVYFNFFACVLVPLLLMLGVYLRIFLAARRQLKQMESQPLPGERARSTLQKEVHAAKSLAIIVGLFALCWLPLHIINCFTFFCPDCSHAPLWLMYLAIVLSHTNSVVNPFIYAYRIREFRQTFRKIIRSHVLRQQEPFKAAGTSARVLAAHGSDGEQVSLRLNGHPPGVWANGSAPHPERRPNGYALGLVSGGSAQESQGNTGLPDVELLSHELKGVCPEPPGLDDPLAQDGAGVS

[9] = Mutagenicity in Salmonella typhimurium TA100 by Ames test; assay type: toxicity; conditions: salmonella enterica subsp. enterica serovar typhimurium
[10] = Mutagenicity in Salmonella typhimurium […] by Ames test; assay type: toxicity; conditions: salmonella enterica subsp. enterica serovar typhimurium
[11] = Mutagenicity in Salmonella typhimurium TA98 by Ames test; assay type: toxicity; conditions: salmonella enterica subsp. enterica serovar typhimurium
Adenosine receptor A2a [12] = target: T4, Adenosine receptor A2a; assay: Activity at human Adenosine A2A receptor; assay type: ADME
[13] = Solubility of the compound at pH 7; assay type: physicochemical; conditions: buffer

Sequence of Voltage-gated inwardly rectifying potassium channel KCNH2 (Q12809 whole entry): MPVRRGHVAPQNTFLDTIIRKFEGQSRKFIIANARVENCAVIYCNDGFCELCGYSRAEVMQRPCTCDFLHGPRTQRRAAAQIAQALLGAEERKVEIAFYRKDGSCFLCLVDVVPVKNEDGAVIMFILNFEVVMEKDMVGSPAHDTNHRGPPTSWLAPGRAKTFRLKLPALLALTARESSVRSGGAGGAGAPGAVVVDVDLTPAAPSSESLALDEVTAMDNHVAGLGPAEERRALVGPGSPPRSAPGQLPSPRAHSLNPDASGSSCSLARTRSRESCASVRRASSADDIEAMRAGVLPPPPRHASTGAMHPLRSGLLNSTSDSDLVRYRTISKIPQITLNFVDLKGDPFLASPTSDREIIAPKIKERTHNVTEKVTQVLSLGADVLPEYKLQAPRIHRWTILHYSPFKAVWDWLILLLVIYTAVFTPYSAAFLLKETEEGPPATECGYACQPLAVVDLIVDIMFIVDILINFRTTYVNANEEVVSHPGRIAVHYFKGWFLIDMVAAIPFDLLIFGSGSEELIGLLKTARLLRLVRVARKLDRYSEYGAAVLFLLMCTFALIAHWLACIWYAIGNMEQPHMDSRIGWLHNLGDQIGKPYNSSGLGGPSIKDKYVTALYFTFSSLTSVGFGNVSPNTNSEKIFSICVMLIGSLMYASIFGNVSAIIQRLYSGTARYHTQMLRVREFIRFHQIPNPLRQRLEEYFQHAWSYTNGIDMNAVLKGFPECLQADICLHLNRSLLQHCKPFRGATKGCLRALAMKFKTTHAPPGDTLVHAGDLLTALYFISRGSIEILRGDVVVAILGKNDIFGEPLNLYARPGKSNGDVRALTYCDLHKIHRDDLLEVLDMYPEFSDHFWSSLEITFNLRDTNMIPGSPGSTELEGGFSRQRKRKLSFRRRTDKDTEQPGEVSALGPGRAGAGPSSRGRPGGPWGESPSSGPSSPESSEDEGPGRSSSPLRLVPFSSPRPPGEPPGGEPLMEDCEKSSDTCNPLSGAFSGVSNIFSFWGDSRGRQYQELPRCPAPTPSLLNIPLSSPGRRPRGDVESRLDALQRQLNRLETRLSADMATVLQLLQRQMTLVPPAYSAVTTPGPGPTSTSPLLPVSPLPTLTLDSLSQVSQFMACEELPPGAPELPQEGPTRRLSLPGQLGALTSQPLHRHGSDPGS

Row | Compound | Ki [1] | IC50 [2] | IC50 [3] | IC50 [4] | logD [5] | Ratio IC50 (Homo sapiens) | Activity (Mus musculus [6]) | Activity (Mus musculus [7]) | IC50 (Adenosine receptor A2a [8]) | Activity [9] | Activity [10] | Activity [11] | Activity (Adenosine receptor A2a [12]) | Ki (Adenosine receptor A2a [8]) | solubility [13]
1 | CC1(C(=O)O)CCN(c2ccc(-c3ccc(-c4nc5cc(Cl)ccc5[nH]4)cn3)cn2)CC1 | 4800 nM | > 10000 nM | 2.5 nM | 20 nM | 1.45 | > 4000 | 96% |  |  |  |  |  |  |  | 
2 | O=C(O)C[C@H]1CC[C@H](OC2CCN(c3ccc(-c4nc5cc(C(F)(F)F)ccc5[nH]4)cn3)CC2)CC1 | 4900 nM | > 10000 nM | 2 nM | 4.6 nM |  |  |  | 57% | 1800 nM |  |  |  |  |  | 
3 | O=C(O)C[C@H]1CC[C@H](OC2CCN(c3ccc(-c4nc5ccccc5[nH]4)cn3)CC2)CC1 | 25700 nM | > 10000 nM | 15.2 nM | 42.1 nM |  |  |  | 85% | > 10000 nM | Toxic | Toxic | Toxic |  |  | 
4 | O=C(O)C[C@H]1CC[C@H](OC2CCN(c3ccc(-c4nc5c(F)cc(F)cc5[nH]4)cn3)CC2)CC1 | 4100 nM | > 10000 nM | 4.1 nM | 11 nM |  |  |  | 65% | 520 nM |  |  |  |  |  | 
5 | Oc1ccc(-c2ccc(-c3nc4cc(C(F)(F)F)ccc4[nH]3)cc2)cn1 | 2250 nM | 3780 nM | 6.4 nM |  |  | > 500 |  |  |  |  |  |  |  |  | 
6 | Cc1ccc2[nH]c(-c3ccc(-c4ccc(O[C@H]5CC[C@@H](CC(=O)O)CC5)nc4)nc3)nc2n1 | > 60000 nM | > 10000 nM | 30.8 nM |  |  |  |  |  | 490 nM |  |  |  |  |  | 
7 | O=C(O)C[C@H]1CC[C@@H](Oc2ccc(-c3ccc(-c4nc5cc(F)ccc5[nH]4)cn3)cn2)CC1 | 8200 nM | > 2000 nM | 2.4 nM | 3.2 nM |  |  |  | 109% | 420 nM |  |  |  |  |  | 
8 | COc1ccc2[nH]c(-c3ccc(-c4ccc(O[C@H]5CC[C@@H](CC(=O)O)CC5)nc4)nc3)nc2n1 | 37700 nM | > 2000 nM | 11.6 nM | 9.8 nM |  |  |  | 96% | 1200 nM |  |  |  | Active |  | 
9 | N#Cc1ccc2[nH]c(-c3ccc(-c4ccc(O[C@H]5CC[C@@H](CC(=O)O)CC5)nc4)nc3)nc2c1 | 2700 nM | > 10000 nM | 3.6 nM | 17.8 nM |  |  |  | 63% | 430 nM |  |  |  |  |  | 
10 | O=C(O)[C@H]1CC[C@@H](OC2CCN(c3ccc(-c4nc5cc(F)ccc5[nH]4)cn3)CC2)CC1 |  | > 10000 nM |  |  |  |  |  |  |  |  |  |  |  | > 10000 nM | 
11 | O=C(O)C[C@H]1CC[C@@H](Oc2ccc(-c3ccc(-c4nc5ccccc5[nH]4)cn3)cn2)CC1 | 26900 nM | > 2000 nM | 5.2 nM | 5.2 nM |  |  |  | 92% | 450 nM |  |  |  | Active |  | 
12 | O=C(O)C1(COc2ccc(-c3ccc(-c4nc5cc(Cl)ccc5[nH]4)cn3)cn2)CCC1 | 20000 nM | 1720 nM | 1.7 nM | 5 nM | 1.24 |  | 89% |  |  |  |  |  |  |  | 
13 | O=C(O)C1CCC2(CCN(c3ccc(-c4nc5cc(C(F)(F)F)ccc5[nH]4)cn3)CC2)OC1 (racemic) |  | > 10000 nM |  |  |  |  |  |  |  |  |  |  |  | > 10000 nM | 
14 | CC1(C)CN(c2ccc(-c3ccc(-c4nc5cc(Cl)ccc5[nH]4)cn3)cn2)CCC1CC(=O)O (racemic) | 1740 nM | > 2000 nM | 4.5 nM | 33 nM | 1.56 |  | 66% |  |  |  |  |  |  |  | 
15 | O=C(O)C1(CNc2ccc(-c3ccc(-c4nc5cc(Cl)ccc5[nH]4)cn3)cn2)CC1 | 12100 nM | > 10000 nM | 2.9 nM | 20 nM | 1.33 |  | 0% |  |  |  |  |  |  |  | 
16 | O=C(O)C[C@H]1CC[C@H](OC2CCN(c3ccc(-c4nc5c(F)cccc5[nH]4)cn3)CC2)CC1 | 10700 nM | > 10000 nM | 8 nM | 21.4 nM |  |  |  | 92% | 910 nM |  |  |  |  |  | 
17 | O=C(O)C1(COc2ccc(-c3ccc(-c4nc5cc(Cl)ccc5[nH]4)cn3)cn2)COC1 | 6540 nM | > 10000 nM | 5.3 nM | 36 nM | 1.16 |  | 87% |  |  |  |  |  |  |  | 
18 | O=C(O)c1ccc(Oc2ccc(-c3ccc(-c4nc5cc(Cl)ccc5[nH]4)cn3)cn2)cc1 | 1360 nM | 1940 nM | 1.3 nM | 4.4 nM | 1.49 |  |  |  |  |  |  |  |  |  | < 1 µM
19 | O=C(O)C[C@H]1CC[C@@H](Oc2ccc(-c3ccc(-c4nc5cc(C(F)(F)F)cnc5[nH]4)cn3)cn2)CC1 | 23400 nM | > 2000 nM | 7 nM | 9.5 nM |  |  |  | 92% | 970 nM |  |  |  | Active |  | 
20 | O=C(O)C[C@H]1CC[C@H](OC2CCN(c3ccc(-c4nc5cc(Cl)ccc5[nH]4)cn3)CC2)CC1 | 4500 nM | > 10000 nM | 3.1 nM | 22 nM |  |  |  |  | 680 nM |  |  |  |  |  | 
